Laboratory results as given in patent US4882349A, “Pyrrolacetic amides having antiinflammatory activity” (priority 1982, dated 1989).

Key:
[1] = tested on: cough provoked by mechanical stimulation of the tracheal bifurcation mucosa; test: antitussive activity, mechanically provoked coughing; format: in vivo, albino Guinea-pigs; settings: 1 h after administration
In short: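 Albino guinea-pigs (300 g) with a tracheal Y cannula; coughing provoked by mechanically stimulating the tracheal bifurcation mucosa with a boar's hair.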

[2] = tested on: carrageenin-induced oedema; test: carrageenin-induced oedema test (anti-inflammatory activity); format: in vivo, albino male Wistar rats
[3] = tested on: phenyl-p-quinone-induced writhing (abdominal contractions); test: phenylquinone-induced writhing test (analgesic activity), compound given 30 min before phenyl-p-quinone; format: in vivo, male Wistar rats; settings: 10 mg/Kg per os
In short: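 Male Wistar rats (110±5 g), fasted 14 h, received test compounds orally or parenterally in 0.5% CMC/saline vehicle 30 min before 2 ml of 0.36% phenyl-p-quinone in 5% ethanol.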

[4] = tested on: mucus secreted by the respiratory airway; test: antisecretory activity, respiratory mucus secretion; format: in vivo, albino male New Zealand rabbits; settings: vs control group
In short: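 Male New Zealand rabbits, groups of four, urethane-anaesthetised (1.1 g/kg i.p.) with tracheal Y cannula breathing 100%-humidity air at 39° C. Mucus collected and measured 3 and 6 h post-dose; change expressed as percent difference from vehicle controls.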

Cc1ccc(C(=O)c2ccc(CC(=O)O)n2C)cc1 [Tolmetin Na.2H2 O, 1-methyl-5-p-toluoylpyrrole-2-acetic acid, reference compound] was tested, and the “% inhibition, cough amplitude” value ([1]; 50 mg/Kg i.p.) was 0%, the “% inhibition, cough frequency” value ([1]; 50 mg/Kg i.p.) was 0% and the “% inhibition, cough amplitude” value ([1]; 50 mg/Kg per os) was 0%. For the same compound, the “% inhibition, cough frequency” value ([1]; 50 mg/Kg per os) was 0%, the “% inhibition, cough amplitude” value ([1]; 75 mg/Kg i.p.) was 0% and the “% inhibition, cough frequency” value ([1]; 75 mg/Kg i.p.) was 10%. The “% inhibition, cough amplitude” value ([1]; 75 mg/Kg per os) was 7%, the “% inhibition, cough frequency” value ([1]; 75 mg/Kg per os) was 0% and the “% inhibition, cough amplitude” value ([1]; 100 mg/Kg i.p.) was 7%. The “% inhibition, cough frequency” value ([1]; 100 mg/Kg i.p.) was 10%, the “% inhibition, cough amplitude” value ([1]; 100 mg/Kg per os) was 5% and the “% inhibition, cough frequency” value ([1]; 100 mg/Kg per os) was 5%. For the same compound, the oedema % inhibition ([2]; 10 mg/Kg per os, 2 h) was 44.8%, the oedema % inhibition ([2]; 10 mg/Kg per os, 4 h) was 29.2% and the oedema % inhibition ([2]; 10 mg/Kg per os, 6 h) was 10.2%. It also gave an oedema % inhibition ([2]; 10 mg/Kg per os, 24 h) of 0.0%, an oedema % inhibition ([2]; 10 mg/Kg per os, 48 h) of 0.0% and an oedema % inhibition ([2]; 10 mg/Kg per os, 72 h) of 0.0%. It also gave an oedema % inhibition ([2]; 10 mg/Kg, Table IV (route not given), 2 h) of 46.0%, an oedema % inhibition ([2]; 10 mg/Kg, Table IV (route not given), 4 h) of 39.1% and an oedema % inhibition ([2]; 10 mg/Kg, Table IV (route not given), 6 h) of 20.0%. It also gave an oedema % inhibition ([2]; 10 mg/Kg, Table IV (route not given), 24 h) of 0.0%, an oedema % inhibition ([2]; 10 mg/Kg, Table IV (route not given), 48 h) of 0.0% and an oedema % inhibition ([2]; 10 mg/Kg, Table IV (route not given), 72 h) of 0.0%. For the same compound, the oedema % inhibition ([2]; 50 mg/Kg per os, 2 h) was 48.0%, the oedema % inhibition ([2]; 50 mg/Kg per os, 4 h) was 55.3% and the oedema % inhibition ([2]; 50 mg/Kg per os, 6 h) was 55.2%. It also gave an oedema % inhibition ([2]; 50 mg/Kg per os, 24 h) of 0.0%, an oedema % inhibition ([2]; 50 mg/Kg per os, 48 h) of 0.0% and an oedema % inhibition ([2]; 50 mg/Kg per os, 72 h) of 0.0%. For the same compound, the oedema % inhibition ([2]; 50 mg/Kg, Table IV (route not given), 2 h) was 53.8%, the oedema % inhibition ([2]; 50 mg/Kg, Table IV (route not given), 4 h) was 60.0% and the oedema % inhibition ([2]; 50 mg/Kg, Table IV (route not given), 6 h) was 58.4%. It also gave an oedema % inhibition ([2]; 50 mg/Kg, Table IV (route not given), 24 h) of 0.0%, an oedema % inhibition ([2]; 50 mg/Kg, Table IV (route not given), 48 h) of 0.0% and an oedema % inhibition ([2]; 50 mg/Kg, Table IV (route not given), 72 h) of 0.0%. The oedema % inhibition ([2]; 100 mg/Kg per os, 2 h) was 50.8%, the oedema % inhibition ([2]; 100 mg/Kg per os, 4 h) was 57.3% and the oedema % inhibition ([2]; 100 mg/Kg per os, 6 h) was 54.8%. It also gave an oedema % inhibition ([2]; 100 mg/Kg per os, 24 h) of 9.7%, an oedema % inhibition ([2]; 100 mg/Kg per os, 48 h) of 7.8% and an oedema % inhibition ([2]; 100 mg/Kg per os, 72 h) of 0.0%. For the same compound, the oedema % inhibition ([2]; 100 mg/Kg, Table IV (route not given), 2 h) was 57.0%, the oedema % inhibition ([2]; 100 mg/Kg, Table IV (route not given), 4 h) was 66.0% and the oedema % inhibition ([2]; 100 mg/Kg, Table IV (route not given), 6 h) was 67.1%. For the same compound, the oedema % inhibition ([2]; 100 mg/Kg, Table IV (route not given), 24 h) was 8.7%, the oedema % inhibition ([2]; 100 mg/Kg, Table IV (route not given), 48 h) was 2.0% and the oedema % inhibition ([2]; 100 mg/Kg, Table IV (route not given), 72 h) was 0.0%. For the same compound, the “% Protection” value [3] was 40.0%, the “% difference in mucus secretion” value ([4]; 50 mg/Kg i.p., 3 h) was “+3%” and the “% difference in mucus secretion” value ([4]; 50 mg/Kg i.p., 6 h) was “+7%”. For the same compound, the “% difference in mucus secretion” value ([4]; 50 mg/Kg per os, 3 h) was “+5%”, the “% difference in mucus secretion” value ([4]; 50 mg/Kg per os, 6 h) was “+10%” and the “% difference in mucus secretion” value ([4]; 75 mg/Kg i.p., 3 h) was “+8%”. The “% difference in mucus secretion” value ([4]; 75 mg/Kg i.p., 6 h) was “+10%”, the “% difference in mucus secretion” value ([4]; 75 mg/Kg per os, 3 h) was 0.0% and the “% difference in mucus secretion” value ([4]; 75 mg/Kg per os, 6 h) was “+2%”. The “% difference in mucus secretion” value ([4]; 100 mg/Kg i.p., 3 h) was “+7%”, the “% difference in mucus secretion” value ([4]; 100 mg/Kg i.p., 6 h) was 0.0% and the “% difference in mucus secretion” value ([4]; 100 mg/Kg per os, 3 h) was “+5%”. The “% difference in mucus secretion” value ([4]; 100 mg/Kg per os, 6 h) was 0.0%.
